Source: patent US11629171B2, “Beta-hairpin peptidomimetics” (POLYPHOR AG, priority 2017, dated 2023)
Values after ≈ are worked out from the molar mass of the structure shown. Where a SMILES comes first, the peptide text is derived from it. Bridges are numbered along the chain shown (N, C = ends). Roman numbers before positions name the chains, in order. [ ]: non-standard residue; d: D form. The star is where a group is joined. Thr(ol) = C[C@@H](O)[C@H](N)CO; Tle = CC(C)(C)[C@H](N)C(=O)O; Hiv = CC(C)[C@H](O)C(=O)O; dDab = NCC[C@@H](N)C(=O)O; hSer = N[C@@H](CCO)C(=O)O; Orn = NCCC[C@H](N)C(=O)O; Dab = NCC[C@H](N)C(=O)O; Dap = NC[C@H](N)C(=O)O; Propionyl = CCC(=O)*

Legend:
Type in all cases: cell-based
[1] = tested on: human red blood cells (hRBC); experiment: Hemolysis; conditions: red cells of human, 1 h, 200
Procedure, shortened: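 Read-out is supernatant absorbance at 540 nm, normalised to full lysis by 2% Triton X-100 and zero lysis by PBS with 10% water. Peptides (200 μg/mL) were exposed to 20% v/v washed human erythrocytes at 37° C for 1 h under shaking.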

[2] = tested on: Enterobacter cloacae 848840; conditions: 848840
Procedure, shortened: (§1)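 CLSI broth microdilution: inoculum ~10^6 CFU/mL in cation-adjusted Mueller-Hinton II broth, with peptide in serial two-fold dilutions plus Polysorbate 80 (0.002% final). MIC (μg/mL) is the lowest concentration without visible growth after 18-20 hours at 35° C.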

[3] = tested on: Acinetobacter baumannii 872842; conditions: 872842
Procedure, shortened: as §1

[4] = tested on: Pseudomonas aeruginosa ATCC 27853; conditions: ATCC 27853
Procedure, shortened: as §1

[5] = tested on: Klebsiella pneumoniae 968733; conditions: 968733
Procedure, shortened: as §1

[6] = tested on: Escherichia coli ATCC 25922; conditions: ATCC 25922
Procedure, shortened: as §1

[7] = tested on: Acinetobacter baumannii DSM 30008; conditions: DSM 30008
Procedure, shortened: as §1

[8] = tested on: Escherichia coli 926415; conditions: 926415
Procedure, shortened: as §1

[9] = tested on: Klebsiella pneumoniae SSI #3010; conditions: SSI #3010
Procedure, shortened: as §1

| SMILES | Hemolysis at 200 μg/mL [1] [%] | MIC [2] [µg/mL] | MIC [3] [µg/mL] | MIC [4] [µg/mL] | MIC [5] [µg/mL] | MIC [6] [µg/mL] | MIC [7] [µg/mL] | MIC [8] [µg/mL] | MIC [9] [µg/mL] | Pseudomonas aeruginosa ATCC 27853 MIC [4] [µg/mL] | Escherichia coli ATCC 25922 MIC [6] [µg/mL] | Acinetobacter baumannii DSM 30008 MIC [7] [µg/mL] | Klebsiella pneumoniae SSI #3010 MIC [9] [µg/mL] |
| --- | --- | --- | --- | --- | --- | --- | --- | --- | --- | --- | --- | --- | --- |
| CC(C)C[C@@H]1NC(=O)[C@@H](CC(C)C)NC(=O)[C@H](CCN)NC(=O)[C@@H](NC(=O)[C@H](CN)NC(=O)[C@@H](NC(=O)[C@H](CCN)NC(=O)CC[C@@H]2NC(=O)[C@@H](CCN)NC(=O)[C@H](CCCN)NC(=O)[C@@H](NC(=O)[C@H](Cc3ccc(O)cc3)NC(=O)[C@@H](NC(=O)[C@@H](O)C(C)C)[C@@H](C)O)CSSC[C@@H](C(=O)N[C@H](C(=O)N[C@@H](C)C(=O)N[C@H](CO)[C@@H](C)O)C(C)(C)C)NC(=O)[C@H](Cc3c[nH]c4ccccc34)NC2=O)[C@@H](C)O)CCNC(=O)[C@H]([C@@H](C)O)NC(=O)[C@H](CCN)NC(=O)[C@H](CCN)NC1=O [Ex. 211] (I: H-[Hiv]TYC[Orn][dDab]EWC[Tle]A[Thr(ol)] / II: [Dab]T[Dap][Dab][Dab][dL]L[Dab][Dab]T; disulfide I:4-I:9; amide I:7-II:N; lactam II:4-II:C) | <1 | 2 (≈ 0.839 µM) | 0.0625 (≈ 0.0262 µM) | 0.125 (≈ 0.0524 µM) | 0.25 (≈ 0.105 µM) | 0.0625 (≈ 0.0262 µM) | 0.03125 (≈ 0.0131 µM) | 0.25 (≈ 0.105 µM) | 0.0625 (≈ 0.0262 µM) |  |  |  |  |
| CC(=O)N[C@H](C(=O)N[C@H]1CSSC[C@@H](C(=O)N[C@@H](CO)C(N)=O)NC(=O)[C@H](C(C)C)NC(=O)[C@H](CO)NC(=O)[C@H](Cc2c[nH]c3ccccc23)NC(=O)[C@@H](CCC(=O)N[C@@H](CCN)C(=O)N[C@H](C(=O)N[C@@H](CN)C(=O)N[C@H]2CCNC(=O)[C@H]([C@@H](C)O)NC(=O)[C@H](CCN)NC(=O)[C@H](CCN)NC(=O)[C@H](CC(C)C)NC(=O)[C@@H](CC(C)C)NC(=O)[C@H](CCN)NC2=O)[C@@H](C)O)NC(=O)[C@@H](CCN)NC(=O)[C@H](CCCN)NC(=O)[C@H](CO)NC(=O)[C@H](Cc2ccc(O)cc2)NC1=O)C(C)C [Ex. 366] (I: Ac-VCYS[Orn][dDab][dE]WSVCS-NH2 / II: [Dab]T[Dap][Dab][Dab][dL]L[Dab][Dab]T; disulfide I:2-I:11; amide I:7-II:N; lactam II:4-II:C) | 4 | 8 (≈ 3.32 µM) | 0.5 (≈ 0.207 µM) |  | 2 (≈ 0.829 µM) |  |  | 0.5 (≈ 0.207 µM) |  | 0.25 | 0.125 | 0.25 | 0.25 |
| CC(=O)N[C@H](C(=O)N[C@H]1CSSC[C@@H](C(=O)N[C@H](C(N)=O)[C@@H](C)O)NC(=O)[C@H](C(C)C)NC(=O)[C@H](CO)NC(=O)[C@H](Cc2c[nH]c3ccccc23)NC(=O)[C@H](CCN)NC(=O)[C@@H](CCN)NC(=O)[C@H](CCC(=O)N[C@@H](CCN)C(=O)N[C@H](C(=O)N[C@@H](CN)C(=O)N[C@H]2CCNC(=O)[C@H]([C@@H](C)O)NC(=O)[C@H](CCN)NC(=O)[C@H](CCN)NC(=O)[C@H](CC(C)C)NC(=O)[C@@H](CC(C)C)NC(=O)[C@H](CCN)NC2=O)[C@@H](C)O)NC(=O)[C@H](CO)NC(=O)[C@H](Cc2ccc(O)cc2)NC1=O)C(C)C [Ex. 267] (I: Ac-VCYSE[dDab][Dab]WSVCT-NH2 / II: [Dab]T[Dap][Dab][Dab][dL]L[Dab][Dab]T; disulfide I:2-I:11; amide I:5-II:N; lactam II:4-II:C) | <1 | 0.125 (≈ 0.0518 µM) | 0.0625 (≈ 0.0259 µM) | 0.0625 (≈ 0.0259 µM) | 0.125 (≈ 0.0518 µM) | 0.03125 (≈ 0.013 µM) | 0.0625 (≈ 0.0259 µM) | 0.0625 (≈ 0.0259 µM) | 0.0625 (≈ 0.0259 µM) |  |  |  |  |
| CCC(=O)N[C@H](C(=O)N[C@H]1CSSC[C@@H](C(=O)N[C@@H](CO)C(N)=O)NC(=O)[C@H](C(C)(C)C)NC(=O)[C@H](CO)NC(=O)[C@H](Cc2c[nH]c3ccccc23)NC(=O)[C@H](CO)NC(=O)[C@@H](CCN)NC(=O)[C@H](CCC(=O)N[C@@H](CCN)C(=O)N[C@H](C(=O)N[C@@H](CN)C(=O)N[C@H]2CCNC(=O)[C@H]([C@@H](C)O)NC(=O)[C@H](CCN)NC(=O)[C@H](CCN)NC(=O)[C@H](CC(C)C)NC(=O)[C@@H](CC(C)C)NC(=O)[C@H](CCN)NC2=O)[C@@H](C)O)NC(=O)[C@H](CN)NC(=O)[C@H](Cc2ccc(O)cc2)NC1=O)C(C)C [Ex. 119] (I: Propionyl-VCY[Dap]E[dDab]SWS[Tle]CS-NH2 / II: [Dab]T[Dap][Dab][Dab][dL]L[Dab][Dab]T; disulfide I:2-I:11; amide I:5-II:N; lactam II:4-II:C) | <1 | 0.0625 (≈ 0.0259 µM) | 0.03125 (≈ 0.013 µM) | 0.125 (≈ 0.0518 µM) | 0.125 (≈ 0.0518 µM) | 0.0625 (≈ 0.0259 µM) | 0.0625 (≈ 0.0259 µM) | 0.0625 (≈ 0.0259 µM) | 0.0625 (≈ 0.0259 µM) |  |  |  |  |
| CC(C)C[C@@H]1NC(=O)[C@@H](Cc2ccccc2)NC(=O)[C@H](CCN)NC(=O)[C@@H](NC(=O)[C@H](CCN)NC(=O)[C@@H](NC(=O)[C@H](CCN)NC(=O)CC[C@@H]2NC(=O)[C@H](CCN)NC(=O)[C@H](Cc3ccc(O)cc3)NC(=O)[C@@H](NC(=O)[C@@H](O)C(C)C)CSSC[C@@H](C(=O)N[C@H](CO)[C@@H](C)O)NC(=O)[C@H](C(C)(C)C)NC(=O)[C@H](CO)NC(=O)[C@H](Cc3c[nH]c4ccccc34)NC(=O)[C@H](CCO)NC(=O)[C@@H](CCN)NC2=O)[C@@H](C)O)CCNC(=O)[C@H]([C@@H](C)O)NC(=O)[C@H](CCN)NC(=O)[C@H](CCN)NC1=O [Ex. 61] (I: H-[Hiv]CY[Dab]E[dDab][hSer]WS[Tle]C[Thr(ol)] / II: [Dab]T[Dab][Dab][Dab][dF]L[Dab][Dab]T; disulfide I:2-I:11; amide I:5-II:N; lactam II:4-II:C) | 3 | 0.125 (≈ 0.0513 µM) | 0.125 (≈ 0.0513 µM) | 0.125 (≈ 0.0513 µM) | 0.125 (≈ 0.0513 µM) | 0.125 (≈ 0.0513 µM) | 0.0625 (≈ 0.0257 µM) | 0.25 (≈ 0.103 µM) | 0.0625 (≈ 0.0257 µM) |  |  |  |  |
| CC(C)C[C@@H]1NC(=O)[C@@H](CC(C)C)NC(=O)[C@H](CCN)NC(=O)[C@@H](NC(=O)[C@H](CCN)NC(=O)[C@@H](NC(=O)[C@H](CCN)NC(=O)CC[C@@H]2NC(=O)[C@H](CCN)NC(=O)[C@H](C(C)C)NC(=O)[C@@H](NC(=O)[C@@H](O)C(C)C)CSSC[C@@H](C(=O)N[C@H](CO)[C@@H](C)O)NC(=O)[C@H](Cc3ccc(O)cc3)NC(=O)[C@H](CO)NC(=O)[C@H](Cc3c[nH]c4ccccc34)NC(=O)[C@H](CCO)NC(=O)[C@@H](CCN)NC2=O)[C@@H](C)O)CCNC(=O)[C@H]([C@@H](C)O)NC(=O)[C@H](CCN)NC(=O)[C@H](CCN)NC1=O [Ex. 89] (I: H-[Hiv]CV[Dab]E[dDab][hSer]WSYC[Thr(ol)] / II: [Dab]T[Dab][Dab][Dab][dL]L[Dab][Dab]T; disulfide I:2-I:11; amide I:5-II:N; lactam II:4-II:C) | <1 | 0.5 (≈ 0.209 µM) | 0.5 (≈ 0.209 µM) | 0.25 (≈ 0.105 µM) | 1 (≈ 0.419 µM) | 0.125 (≈ 0.0524 µM) | 0.0625 (≈ 0.0262 µM) | 0.5 (≈ 0.209 µM) | 0.125 (≈ 0.0524 µM) |  |  |  |  |
| CC(=O)N[C@H](C(=O)N[C@H]1CSSC[C@@H](C(=O)N[C@H](C(N)=O)[C@@H](C)O)NC(=O)[C@H](C(C)(C)C)NC(=O)[C@H](CO)NC(=O)[C@H](Cc2c[nH]c3ccccc23)NC(=O)[C@H](CO)NC(=O)[C@@H](CCN)NC(=O)[C@H](CCC(=O)N[C@@H](CCN)C(=O)N[C@H](C(=O)N[C@@H](CN)C(=O)N[C@H]2CCNC(=O)[C@H]([C@@H](C)O)NC(=O)[C@H](CCN)NC(=O)[C@H](CCN)NC(=O)[C@H]([C@@H](C)O)NC(=O)[C@@H](CC(C)C)NC(=O)[C@H](CCN)NC2=O)[C@@H](C)O)NC(=O)[C@H](CCN)NC(=O)[C@H](Cc2ccc(O)cc2)NC1=O)C(C)C [Ex. 139] (I: Ac-VCY[Dab]E[dDab]SWS[Tle]CT-NH2 / II: [Dab]T[Dap][Dab][Dab][dL]T[Dab][Dab]T; disulfide I:2-I:11; amide I:5-II:N; lactam II:4-II:C) | 2 | 0.125 (≈ 0.0518 µM) | 0.0625 (≈ 0.0259 µM) | 0.25 (≈ 0.104 µM) | 0.25 (≈ 0.104 µM) | 0.0625 (≈ 0.0259 µM) | 0.0625 (≈ 0.0259 µM) | 0.125 (≈ 0.0518 µM) | 0.0625 (≈ 0.0259 µM) |  |  |  |  |
